Measurements from US6051206A, “Radiolabeled somatostatin-derived peptides for imaging and therapeutic uses” (Diatide, Inc, priority 1996, dated 2000).
Read-outs that look alike come from different tables or passages of the source. Bridge positions count the residues as written; N and C are the ends. Square brackets hold non-standard residues; d marks the D form. Peptide text beside a SMILES is read from it. * marks the point of attachment. X10 = NCCCC[C@H](NC(=O)[C@@H](N)CCCCNC(=O)C*)C(=O)N[C@@H](CS)C(N)=O; X2 = N=C(N)NCCC[C@H](NC(=O)[C@H](CS)NC(=O)CNC(=O)CNC(=O)C*)C(N)=O; X1 = NCCCC[C@H](NC(=O)[C@H](CS)NC(=O)CNC(=O)CNC(=O)C*)C(N)=O; NMeF = CN[C@@H](Cc1ccccc1)C(=O)O; hCys = N[C@@H](CCS)C(=O)O; Acm = CC(=O)NC*

Assays:
[1] = test system: Somatostatin Receptor (SSTR)-expressing CA20948 rat pancreatic tumors; conditions: in vivo, iv
Procedure: (§1) CA20948 rat pancreatic tumor cells, thawed from frozen harvested tumor brei, were implanted intramuscularly in a suspension of 0.05 to 0.1 mL/animal, into the right hind thigh of 6 week old Lewis rats. The tumors were allowed to grow to approximately 0.5 to 2 g, harvested, and tumor brei was used to implant a second, naive set of Lewis rats. Passaging in this fashion was repeated to generate successive generations of tumor-bearing animals. The tumor-bearing animals used for the in vivo studies were usually from the third to fifth passage and carried 0.2 to 2 g tumors.
(§2) For studies of the specificity of radiotracer localization in the tumors, selected animals were given an subcutaneous SSTR-blocking dose (4 mg/kg) of octreotide 30 minutes prior to injection of the radiotracer.
(§3) Third- to fifth-passage CA20948 tumor-bearing Lewis rats were restrained and injected intravenously via the dorsal tail vein with a dose of 0.15-0.20 mCi ^99m Tc-labeled peptide corresponding to 3 to 8 μg peptide in 0.2 to 0.4 mL.
(§4) At selected times, the animals were sacrificed by cervical dislocation and selected necropsy was performed. Harvested tissue samples were weighed and counted along with an aliquot of the injected dose in a gamma well-counter.

[2] = test system: Somatostatin Receptor (SSTR)-expressing CA20948 rat pancreatic tumors; assay: Localization and in vivo biodistribution/imaging of Tc-99m labeled peptides in CA20948 tumor-bearing Lewis rats; conditions: 90-minute biodistribution; for T/B (tumor/blood ratio) / T/M / % ID/g Tumor: 99mTc-labeled peptide, i.v.; for % ID/g Tumor: CA20948 tumor-bearing Lewis rats
Procedure: as §1, §2, §3, §4

SSTR-expressing tumors = assay: Clinical trial: scintigraphic imaging of human patients bearing SSTR-expressing tumors with Tc-99m labeled P587; type: in vivo; conditions: i.v., within 30 minutes of injection
Source text: In a clinical trial, scintigraphic imaging of human patients bearing SSTR-expressing tumors was achieved using the Tc-99m labeled P587 reagent.
A total of 10 patients, four females and six males ranging in age from 27 to 69 years, had been previously diagnosed with growth hormone-secreting pituitary adenoma (4 patients), melanoma (1 subject), medullary thyroid cancer (1 subject), small cell lung carcinoma (SCLC; 1 patient), non-Hodgkin's lymphoma (1 patient) or gastric carcinoid (1 patient). Each of these patients were administered Tc-99m labeled P587 at a dose of 10-22 mCi per 0.2-0.5 mg by intravenous injection. Scintigraphic imaging was them performed as described herein on each patient for 4 hours post-injection.
Gamma camera imaging is started simultaneously with injection. Anterior images were acquired as a dynamic study (10 sec image acquisitions) over the first 10 min, and then as static images at 1, 2, 3 and 4 h post-injection. Anterior images were acquired for 500,000 counts or 20 min (whichever is shorter), at approximately 10-20 min, and at approximately 1, 2, 3 and 4 h post-injection.

somatostatin receptor = target: T1, somatostatin receptor (Rattus norvegicus, UniProt P30680); assay: Inhibition of binding of {125I-Tyr11}somatostatin-14 to AR42J rat pancreatic tumor cell membranes; conditions: uncomplexed peptide, {125I-Tyr11}somatostatin-14 0.5 nM
T1 construct: endogenous in cells; host or cells: AR42J rat pancreatic tumor cell line (membrane preparation)
T1 sequence (P30680 whole entry): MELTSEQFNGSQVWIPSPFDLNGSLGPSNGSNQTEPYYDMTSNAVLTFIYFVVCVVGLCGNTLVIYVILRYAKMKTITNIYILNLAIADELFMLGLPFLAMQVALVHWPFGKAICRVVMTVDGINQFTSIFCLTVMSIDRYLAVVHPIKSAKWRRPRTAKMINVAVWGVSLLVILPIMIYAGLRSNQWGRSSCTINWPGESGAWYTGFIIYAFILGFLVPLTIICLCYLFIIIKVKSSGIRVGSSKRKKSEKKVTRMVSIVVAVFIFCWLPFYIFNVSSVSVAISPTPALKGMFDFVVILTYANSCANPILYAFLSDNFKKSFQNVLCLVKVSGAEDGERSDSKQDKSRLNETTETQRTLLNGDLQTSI
Procedure: The rat pancreatic tumor cell line AR42J which expresses the somatostatin receptor was cultured in Dulbecco's minimal essential media (DMEM) supplemented with 10% fetal bovine serum (FBS) and 8 mM glutamine in a humdified 5% CO2 atmosphere at 37° C. in T-flasks. Harvested cells were homogenized in cold 50 mM Tris-HCl buffer (pH 7.4) and the homogenate then centrifuged at 39,000 g for 10 min at 4° C. Pellets were washed once with buffer and then resuspended in an ice-cold solution of 10 mM Tris-HCl (pH 7.4). Equal aliquots of this cell membrane preparation were incubated with {^125 I-Tyr^11 }somatostatin-14 (at a final concentration of 0.5 nM and 750,000 cpm/mL, at a specific activity of 2000 Ci/mmol, Amersham, Arlington Heights, Ill.) and peptide or peptide-rheniumcomplex at a final concentration of from 10^-11 M to 10^-6 M in a solution of 50 mM HEPES (pH 7.4) containing 1 % bovine serum albumin (BSA), 5 mM MgCl2, Trasylol (200,000 International Units), bacitracin (0.02 mg/mL) and phenylmethylsulfonylfluoride (0.02 mg/mL) for 25min at 30° C. Using a filtration manifold, this mixture was filtered through a polyethyleneimine-washed GC/F filter (Whatman, Maidstone, England), and the residue remaining on the filter washed thrice with 5 mL cold HEPES buffer. The filter and a sample of the filter washings were then counted in a gamma counter. To assess non-specific binding, the assay was performed in the presence of unlabeled somatostatin-14 at 200 nM. Data analysis including Hill plots of the data provided inhibition constants (see Bylund & Yamamura, "Methods of receptor binding", in Methods in Neurotransmitter Receptor Analysis, Yamamura et al., eds., Raven Press: New York, 1990).

KKKK.NalD.Cpa.YWD KTFT(ε-K)GCDDDD.amide [Peptide P550]
T/B (tumor/blood ratio) [1]: 0.91
T/M [1]: 7.4

CC(C)[C@@H]1NC(=O)[C@H](CCCCN)NC(=O)[C@@H](Cc2c[nH]c3ccccc23)NC(=O)[C@H](Cc2ccc(O)cc2)NC(=O)[C@H](Cc2ccccc2)N(C)C(=O)[C@H](CCSCC(=O)NCC(=O)NCC(=O)N[C@@H](CS)C(=O)N[C@@H](CCCCN)C(N)=O)NC1=O (99mTc complex, metal not drawn) [Peptide P587, cyclo(N-methyl)FYWD KV.Hcy.(CH2 CO.GGCK.amide)] (cyclo([NMeF]Y[dW]KV[hCys](X1)))
tumor uptake and tumor/blood ratios (in words) [2]: very high
T/B (tumor/blood ratio) [2]: 6.0
T/M [2]: 33
% ID/g Tumor [2]: 3.4 % ID/g
injected dose remaining in the circulation (SSTR-expressing tumors): less than 10%

cyclo.(N-Me)FYWD KV.Hcy(CH2 CO.(ε-K)KC.amide) [Peptide P625]
T/B (tumor/blood ratio) [1]: 0.85
T/M [1]: 4.6

cyclo.(N--CH3)FYWD KV.Hcy(CH2 CO.(β-Dap)KCR.amide) [Peptide P832]
T/B (tumor/blood ratio) [1]: 13
T/M [1]: 37

cyclo.(N--CH3)FYWD KV.Hcy(CH2 CO.(β-Dap)KCK.amide) [Peptide P829]
T/B (tumor/blood ratio) [1]: 13
T/M [1]: 49

CC(C)[C@@H]1NC(=O)[C@H](CCCCN)NC(=O)[C@@H](Cc2c[nH]c3ccccc23)NC(=O)[C@H](Cc2ccc(O)cc2)NC(=O)[C@H](Cc2ccccc2)N(C)C(=O)[C@H](CCSCC(=O)NCC(=O)NCC(=O)N[C@@H](CS)C(=O)N[C@@H](CCCNC(=N)N)C(N)=O)NC1=O (99mTc complex, metal not drawn) [Peptide P617, cyclo(N-methyl)FYWD KV.Hcy.(CH2 CO.GGCR.amide)] (cyclo([NMeF]Y[dW]KV[hCys](X2)))
tumor uptake and tumor/blood ratios (in words) [2]: very high
T/B (tumor/blood ratio) [2]: 9.4
T/M [2]: 36
% ID/g Tumor [2]: 6.7 % ID/g

CC(C)[C@@H]1NC(=O)[C@H](CCCCN)NC(=O)[C@@H](Cc2c[nH]c3ccccc23)NC(=O)[C@H](Cc2ccc(O)cc2)NC(=O)[C@H](Cc2ccccc2)N(C)C(=O)[C@H](CCSCC(=O)NCCCC[C@H](N)C(=O)N[C@@H](CCCCN)C(=O)N[C@@H](CS)C(N)=O)NC1=O [cyclo.(N-Me)FYWD KV.Hcy(CH2 CO.(ε-K)KC.amide)] (cyclo([NMeF]Y[dW]KV[hCys](X10)))
Ki (somatostatin receptor): 2.2 nM

C[C@@H](O)[C@@H]1NC(=O)[C@H](CCCCN)NC(=O)[C@@H](Cc2c[nH]c3ccccc23)NC(=O)[C@H](Cc2ccccc2)NC(=O)[C@H](Cc2ccccc2)NC(=O)CSC[C@@H](C(=O)NCC(=O)NCC(=O)N[C@@H](CS)C(N)=O)NC(=O)[C@H](Cc2ccccc2)NC1=O [CH2 CO.FFWD KTFCGGC.amide] ({CH2CO}-FF[dW]KTFCGGC-NH2; thioether N-7)
Ki (somatostatin receptor): 9.4 nM

CC(=O)NCSC[C@H](NC(=O)CNC(=O)[C@H](CSCNC(C)=O)NC(=O)[C@@H]1CSCC(=O)N[C@@H](Cc2ccccc2)C(=O)N[C@@H](Cc2ccccc2)C(=O)N[C@H](Cc2c[nH]c3ccccc23)C(=O)N[C@@H](CCCCN)C(=O)N[C@@H]([C@@H](C)O)C(=O)N[C@@H](Cc2ccccc2)C(=O)N1)C(N)=O [CH2 CO.FFWD KTFCCAcm GCAcm.amide] ({CH2CO}-FF[dW]KTFCC(Acm)GC(Acm)-NH2; thioether N-7)
Ki (somatostatin receptor): 7.5 nM
